Counter-ions that a name gives are not always drawn.
melting point [°C]	SMILES
106.5	CCN(CCCCNC(=O)c1ccc2ncsc2c1)C1CCc2ncsc2C1 (centres unmarked) (as salt: salt) [Compound 14, Benzothiazole-6-carboxylic acid {4-[ethyl-(4,5,6,7-tetrahydro-benzothiazol-6-yl)-amino]-butyl}-amide]
130	CCCN(CCCCNC(=O)C1CCCCC1)C1CCc2ncsc2C1 (centres unmarked) (as salt: salt) [Compound 20, Cyclohexanecarboxylic acid {4-[propyl-(4,5,6,7-tetrahydro-benzothiazol-6-yl)-amino]-butyl}-amide]
71	CCCN(CCCCNC(=O)N1CCCCC1)C1CCc2ncsc2C1 (centres unmarked) (as salt: salt) [Compound 21, Piperidine-1-carboxylic acid {4-[propyl-(4,5,6,7-tetrahydro-benzothiazol-6-yl)-amino]-butyl}-amide]
149	CCCN(CCCCNC(=O)NC1CCCCC1)C1CCc2ncsc2C1 (centres unmarked) (as salt: salt) [Compound 22, 1-Cyclohexyl-3-{4-[propyl-(4,5,6,7-tetrahydro-benzothiazol-6-yl)-amino]-butyl}-urea]
138	CCCN(CCCCNC(=O)C1CCc2ccccc2C1)C1CCc2ncsc2C1 (centres unmarked) (as salt: salt) [Compound 23, 1,2,3,4-Tetrahydro-naphthalene-2-carboxylic acid {4-[propyl-(4,5,6,7-tetrahydro-benzothiazol-6-yl)-amino]-butyl}-amide]
125	CCCN(CCCCNC(=O)N1CCc2ccccc2C1)C1CCc2ncsc2C1 (centres unmarked) (as salt: salt) [Compound 24, 3,4-Dihydro-1H-isoquinoline-2-carboxylic acid {4-[propyl-(4,5,6,7-tetrahydro-benzothiazol-6-yl)-amino]-butyl}-amide]
106	CCCN(CCCCNC(=O)N1CCc2cc(OC)c(OC)cc2C1)C1CCc2ncsc2C1 (centres unmarked) (as salt: salt) [Compound 25, 6,7-Dimethoxy-3,4-dihydro-1H-isoquinoline-2-carboxylic acid {4-[propyl-(4,5,6,7-tetrahydro-benzothiazol-6-yl)-amino]-butyl}-amide]
119	CCCN(CCCCNC(=O)C1Cc2ccccc2C1)C1CCc2ncsc2C1 (centres unmarked) (as salt: salt) [Compound 26, Indane-2-carboxylic acid-{4-[propyl-(4,5,6,7-tetrahydrobenzothiazol-6-yl)amino]butyl}amide]
118	CCCN(CCCCNC(=O)N1Cc2ccccc2C1)C1CCc2ncsc2C1 (centres unmarked) (as salt: salt) [Compound 27, 1,3-Dihydro-isoindole-2-carboxylic acid {4-[propyl-(4,5,6,7-tetrahydro-benzothiazol-6-yl)-amino]-butyl}-amide]
108	CCN(CCN1CCN(c2ccccc2OC)CC1)C1CCc2ncsc2C1 (centres unmarked) (as salt: salt) [Compound 28]
64	CCN(CCCN1CCN(c2ccccc2OC)CC1)C1CCc2ncsc2C1 (centres unmarked) (as salt: salt) [Compound 29, Ethyl-{3-[4-(2-methoxy-phenyl)-piperazin-1-yl]-propyl}-(4,5,6,7-tetrahydro-benzothiazol-6-yl)-amine]
164	CCN(CCCCN1CCN(c2ccccc2OC)CC1)C1CCc2ncsc2C1 (centres unmarked) (as salt: salt) [Compound 30, Ethyl-{4-[4-(2-methoxy-phenyl)-piperazin-1-yl]-butyl}-(4,5,6,7-tetrahydro-benzothiazol-6-yl)-amine]
193	CCN(CCN1CCc2ccccc2C1)C1CCc2ncsc2C1 (centres unmarked) (as salt: salt) [Compound 31, [2-(3,4-Dihydro-1H-isoquinolin-2-yl)-ethyl]-ethyl-(4,5,6,7-tetrahydro-benzothiazol-6-yl)-amine]
110	CCN(CCNC(=O)c1ccc2ccccc2c1)C1CCc2ncsc2C1 (centres unmarked) (as salt: salt) [Compound 32, Naphthalene-2-carboxylic acid {2-[ethyl-(4,5,6,7-tetrahydro-benzothiazol-6-yl)-amino]-ethyl}-amide]

From patent publication US8389555B2, “Medicaments” (Motac Neuroscience Limited, priority 2007, dated 2013)
